# Laboratory results reported in patent publication US20230390282A1, “TREATMENT OF EYE CONDITIONS” (The University of Birmingham, priority 2020, published 2023).
# “Also recorded” adds a separate entry of the source.
# Experiments:
# [1] = tested on: dorsal root ganglion neuron (DRGN) cultures; assay: Primary adult rat DRGN cultures: survival and neurite outgrowth; assay type: cell-based
# Protocol: (§1) Rat DRGN and retinal cultures. […] Cells were cultured for 4 days in a humidified chamber at 37° C. and 5% CO2 before being subjected to quantitative RT-PCR or immunocytochemistry, as described below.
# [2] = tested on: dorsal column (DC) axons; assay: T8 dorsal column (DC) crush model of spinal cord injury: axon regeneration, electrophysiology, sensory and locomotor tests; assay type: in vivo, rat; details: for DC axon regeneration: GAP43+ axons rostral to/beyond the lesion site
# Protocol: DC crush injury model. Rats were injected subcutaneously with 0.05 ml Buprenorphine to provide analgesia prior to surgery and anaesthetised using 5% of Isoflurane in 1.8 ml/l of O2 with body temperature and heart rate monitored throughout surgery.
# Chk2 inhibition studies in the DC crush injury model. […] Chk1i (LY2603618) was used at equimolar concentrations for each experiment. Rats were killed in a rising concentration of CO2 at either 28 d for immunohistochemistry and western blot analyses or 6 weeks for electrophysiology and functional tests.
# Sham treated animals (partial laminectomy but no DC injury) were also included as additional controls. At 4 weeks after DC injury and treatment, ipsilateral L4/L5 DRG pairs were harvested, total RNA extracted using Trizol reagent as described above and knock down of Chk1 and Chk2 mRNA knockdown using quantitative qRT-PCR, as described above. Contralateral L4/L5 DRG pairs were treated the same as above and used as controls. […] This included western blot to determine pChk1 and pChk2 levels after shChk2 treatment. For these experiments, animals were randomly assigned to DC+shNull and DC+shChk2 groups each comprising n=6 rats and repeated on 3 independent occasions (total n=18 rats/group). […] Animals were allowed to survive for 6 weeks with functional testing (tape sensing+removal and ladder crossing tests) performed pre- and post-DC injury as described below. Electrophysiology was performed on the same set of animals at 6 weeks after DC injury and treatment as described below.
# Quantification of DC axon regeneration. […] Briefly, the number of intersections of GAP43^+ fibers were counted through a dorsoventral orientated line in reconstructed serial parasagittal sections of the cord (serial 50μm-thick sections ˜70-80 sections/animal; n=10 rats/treatment)). Axon number was then represented as % of fibers counted at 4 mm above the lesion, where the DC was intact.
# Electrophysiology. […] Briefly, with the experimenter masked to the treatment conditions, silver wire electrodes applied single-current pulses (0.05 ms) through a stimulus isolation unit in increments (0.2, 0.3, 0.6, 0.8, and 1.2 mA) at L1-L2 and compound action potentials (CAP) were recorded at C4-C5 along the surface of the midline spinal cord. Spike 2 software was then used to calculate CAP amplitudes between the negative deflection after the stimulus artifact and the next peak of the wave. CAP area was calculated by rectifying the negative CAP component (full-wave rectification) and measuring its area. At the different stimulation intensities. […] Representative CAP traces are processed output data from Spike 2 software.
# Functional tests. […] Briefly, animals (n=6 rats/group, 3 independent repeats; total n=18/group) received training to master traversing the horizontal ladder for 1w before functional testing. Baseline parameters for all functional tests were established 2-3 d before injury. Animals were then tested 2 d after DC lesion+treatment and then weekly for 6 weeks. Experiments were performed by 2 observers (treatment conditions were masked) in the same order, the same time of day and each test performed for 3 individual trials. Horizontal ladder test: This tests the animals locomotor function and is performed on a 0.9-meter-long horizontal ladder with a diameter of 15.5 cm and randomly adjusted rungs with variable gaps of 3.5-5.0 cm. The total number of steps taken to cross the ladder and the left and right rear paw slips being were recorded and the mean error rate was then calculated by dividing the number of slips by the total number of steps taken.
# [3] = tested on: RGC; assay: Rat retinal cultures: RGC survival and neurite outgrowth; assay type: cell-based; details: 1-50 μM
# Protocol: as §1
# [4] = tested on: RGC; assay: Glaucoma model (intracameral TGFβ): RGC survival; assay type: in vivo, rat; details: 30 days after the induction of glaucoma
# Protocol: Induction of glaucoma. […] Intraocular pressure was measured using an iCare
# Tonolab rebound tonometer (Icare, Helsinki, Finland).
# [5] = tested on: RGC; assay: Optic neuritis model: RGC survival and RNFL thickness; assay type: in vivo, mice
# Protocol: Induction of optic neuritis. […] Animals were intraperitoneally injected with 150 ng Bordetella pertussis toxin on day 0 and 2. Animals were monitored daily and assessed for the development of EAE. At the end of the experiment, animals were then killed by CO2 overdose.
# Measurement of RNFL thinning using optical coherence tomography (OCT). A Spectralis HRA+OCT machine was used to capture OCT images. Examinations were recorded in both right (oculus dextrus, OD) and left eyes (oculus sinister, OS) of each animal at day 0 and day 21 after immunisation. […] A RNFL single exam using the automatic real time (ART) mode (allows averaging of 100 recordings) was produced for each mouse eye, which automatically measured RNFL thickness (μm) in a 30° circle surrounding the optic nerve head.
# [6] = tested on: RGC; details: 24 days after ONC
# [7] = Chk2i: 3 weeks after injury, others over the whole 6 weeks
Compound,% DRGN with neurites ([1]; 4 days in culture) [%],"mean neurite length ([1]; 4 days in culture, controls 12 μm) [μm]",effect on DRGN survival ([1]; 1-50 μM),neurite outgrowth in DRGN ([1]; 4 days in culture),"DRGN survival ([1]; 4 days in culture, NBA-treated controls 40%)",mean CAP area at different stimulation intensities ([2]; 6 weeks after DC injury),"negative CAP amplitudes ([2]; 6 weeks after DC injury, all stimulation intensities)","ladder crossing test (locomotor function) outcome [2, 7]","tape sensing/removal test (sensory function) outcome [2, 7]",DC axon regeneration [2],effect on RGC survival [3],protection of RGC from death [4],protection of RGC from death ([5]; 21 days after induction),protection against retinal nerve fibre layer thinning ([5]; OCT at day 21),effect on ERG traces [6],improvement in RGC function measured by flash electroretinography (ERG) amplitude [6] [%]
"FGF2: positive control for DRGN cultures, pre-optimised 10 ng/ml",42,180,,,,,,,,,,,,,,
Cc1cnc(NC(=O)Nc2cc(Br)c(C)cc2OC[C@@H]2CNCCO2)cn1 [Chk1i],,,no effect,no effect,no effect,significantly attenuated,significantly attenuated,significant deficit remains; also recorded: deficit remaining,significant deficit remained,no axon regeneration beyond the lesion site,no effect,no effect,no effect,no effect,no effect,
COc1cc2nc(-c3cc(F)ccc3O)nc(N[C@@H]3CNC[C@H]3C(C)(C)O)c2cc1OC [Chk2i],,,,,,,,,,significant DC axon regeneration,,,,,,> 83
